Assay results taken from PubChem BioAssay (NCI).
Values joined by “and” are separate entries in the source; they are usually repeats but may differ in a detail not shown here. Equal entries are not always repeated.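 A five-concentration, 48-hour dose response in 96-well plates underlies each endpoint, interpolated linearly between surrounding concentrations. GI50 marks 50% less growth. TGI: concentration producing complete growth inhibition.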

Assays:
Assay in all cases: NCI anticancer screen, dose series, 48 h
[1] = system: UO-31 renal
[2] = system: OVCAR-5 ovarian
[3] = system: SF-295 CNS
[4] = system: TK-10 renal
[5] = system: SF-268 CNS
[6] = system: HCT-15 colon
[7] = system: MALME-3M melanoma
[8] = system: PC-3 prostate
[9] = system: SN12C renal
[10] = system: NCI-H522 lung

SMILES | TGI [1] [µM] | TGI [2] | TGI [3] [µM] | TGI [4] [µM] | TGI [5] [µM] | TGI [6] | TGI [7] | TGI [8] | TGI [9] | TGI [10] | GI50 [4] | GI50 [7] | GI50 [8] | GI50 [9] [µM] | GI50 [1] [µM] | GI50 [2] [µM] | GI50 [3] [µM] | GI50 [5] [µM] | GI50 [6] [µM] | GI50 [10] [µM]
Cc1cc(C)n(C(=O)C(C)Sc2nnc(SC(C)C(=O)n3nc(C)cc3C)s2)n1 (configuration not stated) | > 100 | > 100 µM | > 100 | > 100 | > 100 | > 100 µM | > 100 µM | > 100 µM |  |  |  |  |  |  |  |  |  |  |  | 
C[N+]1(C)C2CCC1CC(OC(=O)C(CO)c1ccccc1)C2 (configuration not stated) | > 100 | > 100 µM | > 100 | > 100 | > 100 | > 100 µM | > 100 µM | > 100 µM | > 100 µM | > 100 µM |  |  |  |  |  |  |  |  |  | 
Cc1nc(Cl)c(C)c(Cl)n1 |  | > 100 µM | > 100 | > 100 | > 100 | > 100 µM | > 100 µM | > 100 µM | > 100 µM |  |  |  |  |  |  |  |  |  |  | 
Cc1c(N)nc([C@H](CC(N)=O)NC[C@H](N)C(N)=O)nc1C(=O)N[C@H](C(=O)N[C@H](C)[C@@H](O)[C@H](C)C(=O)N[C@H](C(=O)NCCc1nc(-c2nc(C(=O)NCCC[S+](C)C)cs2)cs1)[C@@H](C)O)C(OC1OC(CO)C(O)C(O)C1OC1OC(CO)C(O)C(OC(N)=O)C1O)c1cnc[nH]1 (some centres not stated) |  |  |  |  |  | 29 µM [middle of 4 runs] | 9.03 µM and 22.9 µM and 20.7 µM | 25 µM and > 100 µM | 13.2 µM [middle of 4 runs] |  | 2.36 µM and 20.4 µM | 0.75 µM and 1.65 µM | 2.63 µM and 5.22 µM |  |  |  |  |  |  | 
Cc1c2c(cc3c1[nH]c1ccccc13)C(c1ccc(F)cc1)=NCC2 | 4.08 | 9.62 µM | 2.45 |  | 19.6 | 12.4 µM | 4.91 µM |  | 6.4 µM | 3.85 µM |  |  |  |  |  |  |  |  |  | 
CN1CCN(CCCOc2ccc3ncnc(Nc4ccc(Oc5cccc(C(F)(F)F)c5)c(Cl)c4)c3c2)CC1 | 2.44 | 3.46 µM | 3.13 | 3.09 | 3.12 | 2.88 µM | 2.89 µM | 3.91 µM | 2.57 µM |  | 1.5 µM | 1.5 µM | 1.71 µM | 1.26 | 1.21 | 1.7 | 1.66 | 1.44 | 1.33 | 
CC(=O)C1(c2ccccc2)CCCN(C)CC1 (configuration not stated) | > 100 | > 100 µM | > 100 | > 100 |  | > 100 µM | > 100 µM | > 100 µM |  |  |  |  |  |  |  |  |  |  |  | 
CCn1cc(C(=O)O)c(=O)c2cc(F)c(N3CCN(Cn4c(O)c(N=NC(=O)c5ccncc5)c5cc(Cl)ccc54)CC3)cc21 | > 100 | > 100 µM | > 100 | 71.3 | > 100 | > 100 µM | > 100 µM | > 100 µM | > 100 µM | 63.6 µM |  |  |  |  |  |  |  |  |  | 
COc1ccc(/C=c2/[nH]c(=O)/c(=C\c3ccc(OCc4ccccc4)cn3)[nH]c2=O)cc1 | > 100 | > 100 µM | > 100 | > 100 | > 100 | > 100 µM | > 100 µM | > 100 µM | > 100 µM | > 100 µM |  |  |  |  |  |  |  |  |  | 
O=C1c2scnc2-c2nccc3c2c1nc1ccccc13 | 2.74 | > 24.8 µM | 3.6 |  | > 100 | 1.28 µM | 1.51 µM | > 100 µM | 4.23 µM | > 100 µM |  |  |  |  |  |  |  |  |  | 
Cc1c(Cl)c(=O)oc2cc(OCC(=O)c3ccccc3)ccc12 | > 100 | > 100 µM | > 100 | > 100 | > 100 | > 100 µM | > 100 µM | > 100 µM | > 100 µM | > 100 µM |  |  |  |  |  |  |  |  |  | 
COC1(OC)C[C@H](C)[C@@]23O[C@]24c2cc(O)c5c(c2N[C@H]3C#C/C=C\C#C[C@]14O)C(=O)c1ccccc1C5=O | 0.0176 | 0.169 µM and 0.111 µM | 0.0076 | 0.401 |  | 0.24 µM and 0.543 µM |  | 0.182 µM | 0.00979 µM | 0.0664 µM and 0.0606 µM |  | < 0.001 µM | 0.163 µM |  |  | 0.0206 |  | 0.00193 | 0.0118 | 0.0088
O=c1c2c([nH]c3nccn13)CCCC2 | > 10 | > 10 µM | > 10 | > 10 | > 10 | > 10 µM | > 10 µM | > 10 µM | > 10 µM | > 10 µM |  |  |  |  |  |  |  |  |  | 
O=C1OC(c2ccccc2)=N/C1=C/c1cccs1 |  | > 100 µM | > 100 | > 100 | > 100 | > 100 µM |  | > 100 µM |  |  |  |  |  |  |  |  |  |  |  | 
O=C1CC(N2C(=O)/C(=C/C(Cl)=C\c3ccc([N+](=O)[O-])cc3)SC2=S)C(=O)N1c1ccc(Cl)cc1 (configuration not stated) | 3.3 |  | 3.24 | 8.63 | > 100 | 8.2 µM | 11.6 µM | 4.15 µM | 11.1 µM | 4.36 µM | 2.79 µM | 3.09 µM | 1.34 µM | 1.69 | 1.07 |  | 1.4 | 3.07 | 0.599 | 1.73
CCCCC1Cc2cc(OC)ccc2-c2nc3cc(OC)ccc3n21 (configuration not stated) (tested in a mixture with another compound) | 24.7 | 31.4 µM |  | 35.5 | 33.5 | 11.3 µM | 34.9 µM | 24.7 µM | 27.9 µM | 21.1 µM |  |  |  |  |  |  |  |  |  | 
